Data taken from patent US20240239763A1, “CRYSTAL FORM OF THIOPHENE DERIVATIVE AND PREPARATION METHOD THEREFOR” (DONGBAO PURPLE STAR (HANGZHOU) BIOPHARMACEUTICAL CO., LTD., priority 2021, published 2024).
pIC50: −log10 of the molar value. Blank lines part the entries; values can stand above or below the molecule they belong to.

Tests used:
[1] = Solid-state stability test of crystal form C; type: physicochemical; settings: for Content / purity: crystal form C
Protocol: They were separately placed under stability conditions of high temperature (60° C.), high humidity (25° C./92.5% humidity), combined high temperature and high humidity (40° C./75% humidity), and light exposure. For the sample placed under high temperature and high humidity, the bottle was sealed with aluminum foil, with small holes punctured in the aluminum foil to ensure that the samples could fully contact the ambient air; the sample placed under strong light exposure was sealed with a quartz glass cap. […] The samples placed under combined high temperature and high humidity (40° C./75% humidity) were taken for testing in the 1st, 2nd, and 3rd months (appearance, related substances, and content). The samples placed under light exposure conditions were taken for testing when the total illuminance reached 1.2×10^6 Lux•hr.

[2] = Hepatic metabolic stability (HMS) in human liver cells; type: in vitro ADME; settings: hepatocytes (liver cells) in suspension, read-out: Hepatic intrinsic clearance rates
Protocol: (§1) To test the metabolic stability of the test compound in human and rat liver cells.
(§2) 2.1 Test Compound (10 mM), controls: 7-Ethoxycoumarin (30 mM), 7-Hydroxycoumarin (control, 30 mM)
(§3) 1) A 30 mM solution was prepared by dissolving a precise amount of the positive control compound in dimethyl sulfoxide (DMSO).
(§4) 2) In a 96-well plate, the 10 mM test compound and 30 mM positive control compound were diluted to 1 mM and 3 mM, respectively, using DMSO.
(§5) 3) Acetonitrile was used to further dilute the 1 mM test compound and 3 mM positive control compound to quantification solutions with final concentrations of 100 μM and 300 μM, respectively.
(§6) 4) The stored cells were thawed, separated, and suspended in culture mediums. These cells were then diluted to a concentration of 0.5×10^6 cells/mL using pre-warmed culture mediums.
(§7) 5) In the 96-well plate, 198 μL of the pre-warmed cell suspension was added. […]
(§8) Through the following formula, the residual rates for the test compound and the control compound were calculated.
(§9) The elimination rate constant k for the test compound and control compound in hepatocytes was calculated by plotting the logarithm of the residual rate against time. The half-life (T1/2) and intrinsic clearance rate (CLint) were determined based on the elimination rate constant k. […]

[3] = tested on: P-gp (human MDR1); assay: MDR1 membrane permeability test (bidirectional); type: in vitro ADME, canine; settings: dog, MDR1-MDCK II
Protocol: MDR1-MDCK II cells are Madin-Darby canine kidney cells transfected with the human MDR1 gene, enabling stable high expression of P-gp. The purpose of the present study is to test the bidirectional permeability of the compound across the MDR1-MDCK II cell model and evaluate its potential for efflux transport.
MDR1-MDCK II cells (sourced from Piet Borst at the Netherlands Cancer Institute) were seeded on polyethylene terephthalate (PET) membranes in a 96-well insert system at a density of 2.5×10^5 cells/mL. The cells were cultured until they formed a confluent monolayer over 4-7 days.
Test compounds were diluted in transport buffer (HBSS containing 10 mM Hepes with DMSO, pH 7.4) to a concentration of 2 μM (DMSO<1%) and were applied to either the apical or basolateral side of the cell monolayer. […] Additionally, efflux ratios for each compound were measured, and both test and reference compounds were quantified, based on the peak area ratio of the analyte to IS by LC/MS/MS analysis. After the transport assay, the integrity of the cell monolayer was determined using a Lucifer Yellow exclusion assay. […] The relative fluorescence units (RFU) of […] were measured at 425/528 nm (excitation/emission) using an Envision microplate reader.
The apparent permeability coefficient (Papp, cm/s), efflux ratio, and recovery rate were calculated using the following formulas: […]

[4] = Hepatic metabolic stability (HMS) in rat liver cells; type: in vitro ADME; settings: hepatocytes (liver cells) in suspension, read-out: Hepatic intrinsic clearance rates
Protocol: as §1, §2, §3, §4, §5, §6, §7, §8, §9

[5] = target: CYP2C9 (Homo sapiens (Human), UniProt P11712); assay: Cytochrome P450 isoenzyme inhibition, human liver microsomes; type: in vitro ADME; settings: read-out: Cytochrome P450 isoenzymes IC50, CYP2C9
Protocol: (§10) To determine the inhibitory activity of the test compound against different subtypes of human cytochrome P450 isoenzymes. Test compounds, standard inhibitors (at 100× final concentration), and mixed substrate working solutions were prepared; the microsomes (purchased from Corning Inc.) stored at −80° C. were taken out and thawed. To the corresponding wells were added 20 μL of the test compound and standard inhibitor solutions. Meanwhile, 20 μL of the respective solvent was added to the No Inhibitor Control (NIC) and blank control wells. Next, 20 μL of mixed substrate solution was added to the corresponding wells, except the blank wells where 20 μL of phosphate buffer (PB) was added. A human liver microsome solution was prepared (immediately returned to the fridge after the date of use was marked). Then, 158 μL of this solution was added to all the wells. The sample plate was placed in a 37° C. water bath for pre-incubation. A co-enzyme factor (NADPH) solution was then promptly prepared. After 10 minutes, 20 μL of NADPH solution was added to all wells. The sample plate was shaken to mix and placed back into a 37° C. water bath for an additional 10 minutes of incubation. At the respective time points, the reaction was terminated by adding 400 μL of cold acetonitrile solution (internal standard at 200 ng/ml of tolbutamide and labetalol). The sample plate was mixed thoroughly and was then centrifuged at 4000 rpm for 20 minutes to precipitate proteins. 200 μL of the supernatant was taken and mixed with 100 μL of water, after which it was sent for LC/MS/MS analysis.

[6] = target: CYP3A4-M (Homo sapiens (Human), UniProt P08684); assay: as above; type: in vitro ADME; settings: read-out: Cytochrome P450 isoenzymes IC50, CYP3A4-M
Protocol: as §10

[7] = target: CYP2D6 (Homo sapiens (Human), UniProt P10635); assay: as above; type: in vitro ADME; settings: read-out: Cytochrome P450 isoenzymes IC50, CYP2D6
Protocol: as §10

[8] = target: CYP2C19 (Homo sapiens (Human), UniProt P33261); assay: as above; type: in vitro ADME; settings: read-out: Cytochrome P450 isoenzymes IC50, CYP2C19
Protocol: as §10

[9] = Pharmacokinetics in SD rats in vivo; settings: male, Sprague-Dawley, rat, plasma
Protocol: To test the pharmacokinetics of the compound in SD rats in vivo
Sprague Dawley rats (male, 180-350 g, 6 to 10 weeks of age, Beijing Vital River).
The solution was then filtered through a micropore membrane for later use. […] Six male SD rats were divided into two groups. […] In the second group, animals received a single oral gavage dose of the test compound at 10 mg/kg. […] Whole blood was centrifuged at 3200 g for 10 minutes at 4° C. to obtain plasma. The concentrations of the compound and uric acid (in the oral gavage group only) in the plasma were measured using the LC/MS/MS method. Pharmacokinetic parameters such as peak concentration, time to reach peak concentration, clearance rate, half-life, area under the curve, and bioavailability were calculated using Phoenix WinNonlin software.

[10] = Hygroscopicity study by dynamic vapor sorption (DVS); type: physicochemical; settings: 25° C. and 80% RH
Protocol: Instrument model: Intrinsic dynamic vapor sorption analyzer Test conditions: A sample (10 to 30 mg) is taken and placed in a DVS sample tray for testing.
Detailed parameters for DVS are as follows:
Equilibrium: dm/dt=0.002%/min (minimum: 10 minutes, maximum: 180 minutes)
RH (%) test increment range: 0% to 95% to 0%
DVS Intrinsic dynamic vapor sorption analyzer
in a DVS sample tray for testing.

[11] = 40° C., relative humidity of 75%, open-top, 1M
[12] = 40° C., relative humidity of 75%, open-top, 2M
[13] = 40° C., relative humidity of 75%, open-top, 3M
[14] = High humidity (25° C./relative humidity of 92.5%, open-top), 5 days
[15] = High humidity (25° C./relative humidity of 92.5%, open-top), 10 days
[16] = High humidity (25° C./relative humidity of 92.5%, open-top), 30 days
[17] = High temperature (60° C., open-top), 5 days
[18] = High temperature (60° C., open-top), 10 days
[19] = High temperature (60° C., open-top), 30 days
[20] = Light exposure (total illuminance: 1.2 × 10^6 Lux · hr/near ultraviolet: 200 w · hr/m^2), 5 days
[21] = Light exposure (total illuminance: 1.2 × 10^6 Lux · hr/near ultraviolet: 200 w · hr/m^2), 10 days
[22] = 2.89 mg/kg, 2.89 mpk/intravenous injection

Chain of CYP3A4-M (P08684 whole entry): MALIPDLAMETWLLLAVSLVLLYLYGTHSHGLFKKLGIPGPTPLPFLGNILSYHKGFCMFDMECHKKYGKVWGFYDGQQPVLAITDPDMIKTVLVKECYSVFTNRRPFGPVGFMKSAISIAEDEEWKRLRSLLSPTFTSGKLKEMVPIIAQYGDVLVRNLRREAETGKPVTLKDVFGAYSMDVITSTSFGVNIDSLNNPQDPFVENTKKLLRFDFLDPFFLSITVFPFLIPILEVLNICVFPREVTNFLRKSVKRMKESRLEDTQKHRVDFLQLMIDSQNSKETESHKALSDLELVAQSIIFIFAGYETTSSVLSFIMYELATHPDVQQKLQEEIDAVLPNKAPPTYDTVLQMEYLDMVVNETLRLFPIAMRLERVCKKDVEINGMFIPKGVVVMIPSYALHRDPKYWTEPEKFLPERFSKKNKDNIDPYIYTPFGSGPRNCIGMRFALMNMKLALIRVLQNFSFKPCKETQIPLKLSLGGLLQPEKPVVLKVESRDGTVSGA
Chain of CYP2C19 (P33261 whole entry): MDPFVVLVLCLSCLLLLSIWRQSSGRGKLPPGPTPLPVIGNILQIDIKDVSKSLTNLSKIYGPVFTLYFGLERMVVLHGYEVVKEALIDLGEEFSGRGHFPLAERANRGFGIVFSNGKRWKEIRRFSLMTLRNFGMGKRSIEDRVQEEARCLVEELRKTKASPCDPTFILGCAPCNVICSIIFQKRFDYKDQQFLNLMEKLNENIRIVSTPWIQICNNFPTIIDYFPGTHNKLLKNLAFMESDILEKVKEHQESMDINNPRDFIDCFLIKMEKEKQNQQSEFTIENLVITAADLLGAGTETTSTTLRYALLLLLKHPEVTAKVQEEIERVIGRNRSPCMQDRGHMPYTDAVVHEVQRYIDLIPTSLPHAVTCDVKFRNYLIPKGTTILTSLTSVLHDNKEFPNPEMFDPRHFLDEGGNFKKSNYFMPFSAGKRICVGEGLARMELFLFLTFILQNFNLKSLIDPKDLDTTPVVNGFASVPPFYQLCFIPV
Chain of CYP2C9 (P11712 whole entry): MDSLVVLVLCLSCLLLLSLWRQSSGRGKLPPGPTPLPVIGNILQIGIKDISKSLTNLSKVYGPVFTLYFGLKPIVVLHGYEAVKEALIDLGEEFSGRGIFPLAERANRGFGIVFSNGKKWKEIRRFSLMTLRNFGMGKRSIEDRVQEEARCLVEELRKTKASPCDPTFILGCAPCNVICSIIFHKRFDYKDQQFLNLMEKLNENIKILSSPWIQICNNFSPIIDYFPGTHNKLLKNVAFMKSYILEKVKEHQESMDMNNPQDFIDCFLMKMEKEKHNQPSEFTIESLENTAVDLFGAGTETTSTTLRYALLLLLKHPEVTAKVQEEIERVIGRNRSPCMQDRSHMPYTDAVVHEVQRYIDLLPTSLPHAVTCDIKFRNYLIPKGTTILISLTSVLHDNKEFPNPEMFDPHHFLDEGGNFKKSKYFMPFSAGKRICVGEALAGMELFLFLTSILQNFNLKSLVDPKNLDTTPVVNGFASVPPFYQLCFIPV
Chain of CYP2D6 (P10635 whole entry): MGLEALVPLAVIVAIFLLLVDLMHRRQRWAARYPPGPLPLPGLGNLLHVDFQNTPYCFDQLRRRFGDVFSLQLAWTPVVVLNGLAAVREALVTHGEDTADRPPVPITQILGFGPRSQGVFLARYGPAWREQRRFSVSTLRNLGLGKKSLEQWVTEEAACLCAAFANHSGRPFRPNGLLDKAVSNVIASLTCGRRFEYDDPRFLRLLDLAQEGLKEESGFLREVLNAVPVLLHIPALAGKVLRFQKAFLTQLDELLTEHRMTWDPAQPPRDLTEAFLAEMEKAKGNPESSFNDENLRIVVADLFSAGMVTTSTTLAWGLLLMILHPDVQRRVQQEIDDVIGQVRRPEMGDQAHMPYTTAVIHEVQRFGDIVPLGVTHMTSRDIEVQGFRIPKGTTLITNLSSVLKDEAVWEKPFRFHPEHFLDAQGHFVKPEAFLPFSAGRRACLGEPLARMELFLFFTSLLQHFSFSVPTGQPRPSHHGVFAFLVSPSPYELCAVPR

Content ([1]; 0 days (initial)): 98.1%
purity ([1]; 0 days (initial)): 98.84%
Content [1, 11]: 97.8%
purity [1, 11]: 98.83%
Content [1, 12]: 97.8%
purity [1, 12]: 99.02%
Content [1, 13]: 97.8%
purity [1, 13]: 98.86%
Content [1, 14]: 97.9%
purity [1, 14]: 98.90%
Content [1, 15]: 97.9%
purity [1, 15]: 98.90%
Content [1, 16]: 97.9%
purity [1, 16]: 98.80%
Content [1, 17]: 98.5%
purity [1, 17]: 98.94%
Content [1, 18]: 98.3%
purity [1, 18]: 98.95%
Content [1, 19]: 98.1%
purity [1, 19]: 98.87%
Content [1, 20]: 97.6%
purity [1, 20]: 98.89%
Content [1, 21]: 98.0%
purity [1, 21]: 98.91%
CLint scaled at 1 µM [2]: 31.8 mL/min/kg
Papp A→B at […], 2 µM ([3]; pH 7.4, A-to-B): 26.4 ×10⁻⁶ cm/s
Papp B→A at […], 2 µM ([3]; pH 7.4, B-to-A): 6.63 ×10⁻⁶ cm/s
CLint scaled at 1 µM [4]: 188 mL/min/kg
pIC50 [5]: 4.74
pIC50 [6]: < 4.30
pIC50 [7]: < 4.30
pIC50 [8]: < 4.30
AUC(0-inf) [9, 22]: 41.8 µM·h
C0 [9, 22]: 96.6 µM
clearance [9, 22]: 3.59 mL/min/kg
Vd ([9]; 2.89 mg/kg, 2.89 mpk/intravenous injection, read-out: Vdss): 0.32 L/kg
AUC(0-inf) ([9]; 8.58 mg/kg, 8.58 mpk/oral): 86.6 µM·h
Cmax ([9]; 8.58 mg/kg, 8.58 mpk/oral): 27.5 µM
Tmax ([9]; 8.58 mg/kg, 8.58 mpk/oral): 0.5 h
bioavailability ([9]; 8.58 mg/kg, 8.58 mpk/oral): 62.1%
half-life ([9]; 8.58 mg/kg, 8.58 mpk/oral): 2.47 h
Structure (SMILES): N#Cc1sc(-c2ccc(C(=O)O)c(O)c2)c2c1CCC(F)(F)C2 [Compound of formula (I)]

solid-state stability (in words) ([1]; high temperature, high humidity, strong light exposure, and accelerated conditions): good stability
hygroscopicity classification [10]: no hygroscopicity
ΔW (hygroscopic weight gain) [10]: 0.196%
Structure (SMILES): N#Cc1sc(-c2ccc(C(=O)O)c(O)c2)c2c1CCC(F)(F)C2 [crystal form C]
